Patent publication US7309719B1, “Stabilized pharmaceutical preparation of gamma-aminobutyric acid derivatives and process for preparing the same” (Warner Lambert Company, LLC, priority 1998, dated 2007)

Tests used:
[1] = Stability of compacted pregabalin powders, dehydrated condensate content by HPLC (Example 9); format: physicochemical; conditions: solid
Procedure: 3) Sample (v) was prepared by dissolving 1 g of pregabalin crystals and 1.47 g of L-valine in water to make up a total volume of 50 mL. • Samples (t), (u) and (v) prepared as described above were stored under the conditions as defined in the following Table 10 and then a content of the dehydrated condensate formed in each of the aqueous solutions was determined by means of HPLC. In this Example and the following Examples, a content of the dehydrated condensate formed is expressed in terms of % by weight, based on pregabalin.
This Example will illustrate the preparation of a stabilized solid pharmaceutical preparation of pregabalin by the addition of the amino acid to pregabalin according to the dry admixture.
1) 1 g of pregabalin crystals was prepared to powdery Sample (aa) in a compacted state by means of a mortar.
2) 1 g of pregabalin crystals was blended with 10 mg of magnesium stearate by means of a mortar to prepare mixed powdery Sample (ab) in a compacted state.
3) 1 g of pregabalin crystals was blended with 30 mg of talc by means of a mortar to prepare mixed powdery Sample (ac) in a compacted state.
4) 1 g of pregabalin crystals was blended with 30 mg of L-leucine by means of a mortar to prepare mixed powdery Sample (ad) in a compacted state. • Samples (aa), (ab), (ac) and (ad) prepared as described above and untreated pregabalin crystals were stored under the conditions as defined in the following Table 11 and then a content of the dehydrated condensate formed in each of the samples was determined by means of HPLC.

[2] = Dehydration reaction (lactam formation) in a dried state at 105° C.; format: physicochemical; conditions: 105° C. over 2-3 hours
Excerpt: In other words, in the 4-amino-3-substituted-butanoic acid derivative wherein the substituent at the 3-position thereof has a bulky structure, the dehydration reaction could easily be brought about between the amino group and the carboxyl group within the molecule.

[3] = Stabilizing effect of amino acids on 4-amino-3-substituted-butanoic acid derivatives
[4] = Stability of baclofen granular powders (wet admixture), dehydrated condensate content by HPLC (Example 11); format: physicochemical; conditions: solid
Procedure: In this Example and the following Example, a content of the dehydrated condensate thus formed is expressed in terms of % by weight, based on baclofen.
In this Example, the stabilization of baclofen according to the wet admixture with the amino acid was tested for the following Samples (ag) and (ah) of baclofen.
1) Sample (ag) was prepared by wetting 200 mg of baclofen crystals with 0.1 mL of water, forming granular powders by means of a mortar and then drying.
2) Sample (ah) was prepared by wetting 200 mg of baclofen crystals with 0.1 mL of a 2% aqueous solution of L-isoleucine, forming granular powders by means of a mortar and then drying. • Samples (ag) and (ah) prepared as described above and untreated baclofen crystals were stored under the conditions as defined in the following Table 13 and then a content of the dehydrated condensate formed in each of the samples was determined by means of HPLC.

Compound: CC(C)CC(CN)CC(=O)O (stereo not shown) [Untreated Pregabalin, 5-methyl-3-aminomethyl-hexanoic acid]
- content of the dehydrated condensate ([1]; 60° C./2 weeks (sealed)): 0.001 % by weight, based on pregabalin
- content of the dehydrated condensate ([1]; 80° C./1 week (sealed)): 0.006 % by weight, based on pregabalin
- content of the dehydrated condensate ([1]; When initiated): <0.001 % by weight, based on pregabalin

Compound: NCC(O)CC(=O)O (stereo not shown) [4-amino-3-hydroxy-butanoic acid]
- dehydration reaction (formation of the corresponding lactam form) [2]: not brought about

Compound: NCCCC(=O)O [γ-aminobutyric acid]
- dehydration reaction (formation of the corresponding lactam form) [2]: not brought about

Compound: O=C(O)[C@@H]1C[C@@H](O)CN1 [hydroxyproline]
- stabilizing effect as stabilizer for a 4-amino-3-substituted-butanoic acid derivative [3]: weak stabilizing effect

Compound: NCC(CC(=O)O)c1ccc(Cl)cc1 (stereo not shown) [Untreated Baclofen]
- content of the dehydrated condensate ([4]; 60° C./1 week (sealed)): 0.36 % by weight, based on baclofen
- content of the dehydrated condensate ([4]; 60° C./2 weeks (sealed)): 0.57 % by weight, based on baclofen
- content of the dehydrated condensate ([4]; 60° C./3 weeks (sealed)): 0.70 % by weight, based on baclofen
- content of the dehydrated condensate ([4]; When initiated): 0.10 % by weight, based on baclofen
